From publication PMC6199744, “Development of Chemical Proteomics for the Folateome and Analysis of the Kinetoplastid Folateome” (ACS Infectious Diseases, 2018)
Where two headings read alike, the source gives them in different places.

Tests used:
Format in all cases: binding
[1] = molecular target: T1, HeLa cell extract proteins (Homo sapiens, UniProt P55735)
T1 construct: endogenous in cells; host or cells: HeLa cell extract
T1 sequence (P55735 1-322): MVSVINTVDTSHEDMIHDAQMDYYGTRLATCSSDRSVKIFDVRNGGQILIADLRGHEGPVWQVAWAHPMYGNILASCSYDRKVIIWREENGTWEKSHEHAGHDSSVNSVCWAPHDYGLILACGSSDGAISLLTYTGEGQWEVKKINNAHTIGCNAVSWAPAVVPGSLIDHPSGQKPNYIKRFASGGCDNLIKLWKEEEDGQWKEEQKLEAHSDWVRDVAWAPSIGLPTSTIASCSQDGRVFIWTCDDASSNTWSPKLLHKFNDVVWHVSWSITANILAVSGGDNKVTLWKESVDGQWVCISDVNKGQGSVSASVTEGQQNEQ

[2] = molecular target: T2, HeLa cell extract proteins (Homo sapiens, UniProt O95619)
T2 construct: endogenous in cells; host or cells: HeLa cell extract
T2 sequence (O95619 whole entry): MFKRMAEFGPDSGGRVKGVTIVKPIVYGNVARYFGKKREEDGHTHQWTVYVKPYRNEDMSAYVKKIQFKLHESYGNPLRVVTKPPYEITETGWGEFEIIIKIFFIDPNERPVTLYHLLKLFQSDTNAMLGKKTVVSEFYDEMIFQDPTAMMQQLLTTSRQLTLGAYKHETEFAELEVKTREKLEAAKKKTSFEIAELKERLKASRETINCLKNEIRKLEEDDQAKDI

[3] = molecular target: T3, HeLa cell extract proteins (Homo sapiens, UniProt Q9HB71)
T3 construct: endogenous in cells; host or cells: HeLa cell extract
T3 sequence (Q9HB71 whole entry): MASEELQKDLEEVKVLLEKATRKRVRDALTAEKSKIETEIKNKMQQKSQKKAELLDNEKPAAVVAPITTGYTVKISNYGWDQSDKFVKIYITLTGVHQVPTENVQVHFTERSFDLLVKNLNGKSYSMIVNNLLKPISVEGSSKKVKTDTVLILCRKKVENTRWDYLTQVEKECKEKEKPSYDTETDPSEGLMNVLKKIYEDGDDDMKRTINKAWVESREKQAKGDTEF

[4] = molecular target: T4, HeLa cell extract proteins (Homo sapiens, UniProt P38646)
T4 construct: endogenous in cells; host or cells: HeLa cell extract
T4 sequence (P38646 47-679): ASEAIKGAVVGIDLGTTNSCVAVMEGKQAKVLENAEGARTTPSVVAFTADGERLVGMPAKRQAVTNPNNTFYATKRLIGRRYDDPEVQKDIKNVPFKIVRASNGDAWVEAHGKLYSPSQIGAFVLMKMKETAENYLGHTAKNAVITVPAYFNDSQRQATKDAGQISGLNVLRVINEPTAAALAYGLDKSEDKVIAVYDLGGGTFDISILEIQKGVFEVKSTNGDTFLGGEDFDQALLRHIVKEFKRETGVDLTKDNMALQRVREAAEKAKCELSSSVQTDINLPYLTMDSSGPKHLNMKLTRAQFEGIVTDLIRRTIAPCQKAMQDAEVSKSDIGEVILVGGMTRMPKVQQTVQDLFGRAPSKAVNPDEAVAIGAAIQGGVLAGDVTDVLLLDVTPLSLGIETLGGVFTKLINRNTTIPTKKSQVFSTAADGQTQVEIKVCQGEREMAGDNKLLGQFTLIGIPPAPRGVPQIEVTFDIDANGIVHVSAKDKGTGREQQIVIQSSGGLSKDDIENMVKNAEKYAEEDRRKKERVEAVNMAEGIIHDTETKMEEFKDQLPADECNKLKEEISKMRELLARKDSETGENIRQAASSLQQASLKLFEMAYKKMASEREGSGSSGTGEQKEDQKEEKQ

[5] = molecular target: T5, HeLa cell extract proteins (Homo sapiens, UniProt Q92973)
T5 construct: endogenous in cells; host or cells: HeLa cell extract
T5 sequence (Q92973 1-898): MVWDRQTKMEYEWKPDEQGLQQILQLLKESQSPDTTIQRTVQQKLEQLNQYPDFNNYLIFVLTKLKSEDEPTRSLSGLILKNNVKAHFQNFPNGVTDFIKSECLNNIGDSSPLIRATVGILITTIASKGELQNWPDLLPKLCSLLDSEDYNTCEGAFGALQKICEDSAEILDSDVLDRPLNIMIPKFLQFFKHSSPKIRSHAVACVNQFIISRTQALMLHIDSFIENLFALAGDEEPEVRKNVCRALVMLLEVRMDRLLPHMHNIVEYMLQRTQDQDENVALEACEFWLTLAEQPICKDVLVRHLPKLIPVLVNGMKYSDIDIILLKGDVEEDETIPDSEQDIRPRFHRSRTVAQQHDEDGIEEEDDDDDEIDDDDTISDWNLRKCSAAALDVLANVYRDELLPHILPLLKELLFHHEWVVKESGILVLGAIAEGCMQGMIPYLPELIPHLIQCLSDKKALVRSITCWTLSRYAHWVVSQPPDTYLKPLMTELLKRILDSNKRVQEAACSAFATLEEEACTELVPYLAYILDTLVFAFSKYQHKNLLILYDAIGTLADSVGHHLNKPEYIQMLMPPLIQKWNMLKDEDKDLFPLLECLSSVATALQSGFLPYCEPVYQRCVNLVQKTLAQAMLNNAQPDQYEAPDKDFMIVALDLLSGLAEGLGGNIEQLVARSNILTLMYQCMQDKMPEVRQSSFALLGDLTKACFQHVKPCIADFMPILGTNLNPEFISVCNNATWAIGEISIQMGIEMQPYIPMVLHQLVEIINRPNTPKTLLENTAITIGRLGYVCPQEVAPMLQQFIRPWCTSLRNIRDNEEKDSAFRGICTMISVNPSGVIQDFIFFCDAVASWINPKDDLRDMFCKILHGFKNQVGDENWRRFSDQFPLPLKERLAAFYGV

[6] = molecular target: T6, HeLa cell extract proteins (Homo sapiens, UniProt O15027)
T6 construct: endogenous in cells; host or cells: HeLa cell extract

[7] = molecular target: T7, HeLa cell extract proteins (Homo sapiens, UniProt P29401)
T7 construct: endogenous in cells; host or cells: HeLa cell extract
T7 sequence (P29401 1-623): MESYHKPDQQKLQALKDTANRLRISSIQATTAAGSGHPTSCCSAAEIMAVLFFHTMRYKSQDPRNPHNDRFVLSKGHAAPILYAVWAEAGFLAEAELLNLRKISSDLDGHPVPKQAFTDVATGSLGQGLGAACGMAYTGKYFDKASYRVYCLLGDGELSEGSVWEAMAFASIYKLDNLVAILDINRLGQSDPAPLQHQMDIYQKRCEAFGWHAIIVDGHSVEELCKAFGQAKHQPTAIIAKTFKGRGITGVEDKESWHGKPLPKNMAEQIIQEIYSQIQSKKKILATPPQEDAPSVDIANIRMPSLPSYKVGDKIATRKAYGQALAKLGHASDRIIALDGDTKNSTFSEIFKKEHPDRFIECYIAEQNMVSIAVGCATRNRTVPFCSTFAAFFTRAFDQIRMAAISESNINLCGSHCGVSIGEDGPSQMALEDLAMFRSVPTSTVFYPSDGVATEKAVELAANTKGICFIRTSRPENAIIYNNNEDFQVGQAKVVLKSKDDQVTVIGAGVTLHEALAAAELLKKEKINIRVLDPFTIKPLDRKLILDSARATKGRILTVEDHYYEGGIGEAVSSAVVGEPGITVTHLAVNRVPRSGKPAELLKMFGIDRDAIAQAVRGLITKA

[8] = molecular target: T8, HeLa cell extract proteins (Homo sapiens, UniProt Q14974)
T8 construct: endogenous in cells; host or cells: HeLa cell extract
T8 sequence (Q14974 whole entry): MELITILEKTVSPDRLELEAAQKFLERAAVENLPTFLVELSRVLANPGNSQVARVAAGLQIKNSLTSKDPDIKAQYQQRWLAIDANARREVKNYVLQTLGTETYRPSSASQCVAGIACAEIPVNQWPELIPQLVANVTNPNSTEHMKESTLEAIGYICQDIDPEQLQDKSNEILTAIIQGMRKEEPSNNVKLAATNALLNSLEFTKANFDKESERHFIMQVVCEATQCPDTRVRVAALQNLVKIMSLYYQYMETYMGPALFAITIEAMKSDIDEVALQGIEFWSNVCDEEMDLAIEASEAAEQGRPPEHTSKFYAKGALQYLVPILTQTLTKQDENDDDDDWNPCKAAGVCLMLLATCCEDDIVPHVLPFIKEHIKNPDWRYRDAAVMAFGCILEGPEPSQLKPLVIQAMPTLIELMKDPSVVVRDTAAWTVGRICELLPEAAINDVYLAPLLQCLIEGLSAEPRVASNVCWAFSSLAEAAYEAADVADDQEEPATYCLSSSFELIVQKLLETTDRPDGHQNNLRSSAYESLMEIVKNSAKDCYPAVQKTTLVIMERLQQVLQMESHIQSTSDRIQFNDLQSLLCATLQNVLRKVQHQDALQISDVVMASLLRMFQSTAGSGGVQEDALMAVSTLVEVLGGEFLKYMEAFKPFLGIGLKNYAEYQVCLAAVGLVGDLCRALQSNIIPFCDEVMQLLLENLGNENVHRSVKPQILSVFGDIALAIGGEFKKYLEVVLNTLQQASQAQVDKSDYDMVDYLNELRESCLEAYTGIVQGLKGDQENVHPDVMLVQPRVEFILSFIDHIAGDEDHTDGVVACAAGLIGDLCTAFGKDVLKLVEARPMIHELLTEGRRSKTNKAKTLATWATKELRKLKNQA

[9] = molecular target: T9, HeLa cell extract proteins (Homo sapiens, UniProt P15311)
T9 construct: endogenous in cells; host or cells: HeLa cell extract
T9 sequence (P15311 whole entry): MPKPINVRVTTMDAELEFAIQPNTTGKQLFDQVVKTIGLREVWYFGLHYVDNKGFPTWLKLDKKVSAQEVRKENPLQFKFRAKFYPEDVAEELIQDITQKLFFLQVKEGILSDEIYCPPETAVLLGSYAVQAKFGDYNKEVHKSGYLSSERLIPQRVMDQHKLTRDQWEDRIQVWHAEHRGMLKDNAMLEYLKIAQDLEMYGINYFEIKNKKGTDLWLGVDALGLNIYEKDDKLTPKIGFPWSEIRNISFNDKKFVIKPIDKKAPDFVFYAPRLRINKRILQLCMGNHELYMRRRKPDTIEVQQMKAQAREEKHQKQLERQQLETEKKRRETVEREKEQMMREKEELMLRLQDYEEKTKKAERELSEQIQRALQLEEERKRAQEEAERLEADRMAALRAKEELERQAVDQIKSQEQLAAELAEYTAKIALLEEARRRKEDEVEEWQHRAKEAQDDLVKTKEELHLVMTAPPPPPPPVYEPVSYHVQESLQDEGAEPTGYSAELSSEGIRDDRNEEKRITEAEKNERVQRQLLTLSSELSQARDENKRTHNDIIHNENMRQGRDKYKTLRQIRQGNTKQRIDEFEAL

[10] = molecular target: T10, HeLa cell extract proteins (Homo sapiens, UniProt P42356)
T10 construct: endogenous in cells; host or cells: HeLa cell extract
T10 sequence (P42356 whole entry): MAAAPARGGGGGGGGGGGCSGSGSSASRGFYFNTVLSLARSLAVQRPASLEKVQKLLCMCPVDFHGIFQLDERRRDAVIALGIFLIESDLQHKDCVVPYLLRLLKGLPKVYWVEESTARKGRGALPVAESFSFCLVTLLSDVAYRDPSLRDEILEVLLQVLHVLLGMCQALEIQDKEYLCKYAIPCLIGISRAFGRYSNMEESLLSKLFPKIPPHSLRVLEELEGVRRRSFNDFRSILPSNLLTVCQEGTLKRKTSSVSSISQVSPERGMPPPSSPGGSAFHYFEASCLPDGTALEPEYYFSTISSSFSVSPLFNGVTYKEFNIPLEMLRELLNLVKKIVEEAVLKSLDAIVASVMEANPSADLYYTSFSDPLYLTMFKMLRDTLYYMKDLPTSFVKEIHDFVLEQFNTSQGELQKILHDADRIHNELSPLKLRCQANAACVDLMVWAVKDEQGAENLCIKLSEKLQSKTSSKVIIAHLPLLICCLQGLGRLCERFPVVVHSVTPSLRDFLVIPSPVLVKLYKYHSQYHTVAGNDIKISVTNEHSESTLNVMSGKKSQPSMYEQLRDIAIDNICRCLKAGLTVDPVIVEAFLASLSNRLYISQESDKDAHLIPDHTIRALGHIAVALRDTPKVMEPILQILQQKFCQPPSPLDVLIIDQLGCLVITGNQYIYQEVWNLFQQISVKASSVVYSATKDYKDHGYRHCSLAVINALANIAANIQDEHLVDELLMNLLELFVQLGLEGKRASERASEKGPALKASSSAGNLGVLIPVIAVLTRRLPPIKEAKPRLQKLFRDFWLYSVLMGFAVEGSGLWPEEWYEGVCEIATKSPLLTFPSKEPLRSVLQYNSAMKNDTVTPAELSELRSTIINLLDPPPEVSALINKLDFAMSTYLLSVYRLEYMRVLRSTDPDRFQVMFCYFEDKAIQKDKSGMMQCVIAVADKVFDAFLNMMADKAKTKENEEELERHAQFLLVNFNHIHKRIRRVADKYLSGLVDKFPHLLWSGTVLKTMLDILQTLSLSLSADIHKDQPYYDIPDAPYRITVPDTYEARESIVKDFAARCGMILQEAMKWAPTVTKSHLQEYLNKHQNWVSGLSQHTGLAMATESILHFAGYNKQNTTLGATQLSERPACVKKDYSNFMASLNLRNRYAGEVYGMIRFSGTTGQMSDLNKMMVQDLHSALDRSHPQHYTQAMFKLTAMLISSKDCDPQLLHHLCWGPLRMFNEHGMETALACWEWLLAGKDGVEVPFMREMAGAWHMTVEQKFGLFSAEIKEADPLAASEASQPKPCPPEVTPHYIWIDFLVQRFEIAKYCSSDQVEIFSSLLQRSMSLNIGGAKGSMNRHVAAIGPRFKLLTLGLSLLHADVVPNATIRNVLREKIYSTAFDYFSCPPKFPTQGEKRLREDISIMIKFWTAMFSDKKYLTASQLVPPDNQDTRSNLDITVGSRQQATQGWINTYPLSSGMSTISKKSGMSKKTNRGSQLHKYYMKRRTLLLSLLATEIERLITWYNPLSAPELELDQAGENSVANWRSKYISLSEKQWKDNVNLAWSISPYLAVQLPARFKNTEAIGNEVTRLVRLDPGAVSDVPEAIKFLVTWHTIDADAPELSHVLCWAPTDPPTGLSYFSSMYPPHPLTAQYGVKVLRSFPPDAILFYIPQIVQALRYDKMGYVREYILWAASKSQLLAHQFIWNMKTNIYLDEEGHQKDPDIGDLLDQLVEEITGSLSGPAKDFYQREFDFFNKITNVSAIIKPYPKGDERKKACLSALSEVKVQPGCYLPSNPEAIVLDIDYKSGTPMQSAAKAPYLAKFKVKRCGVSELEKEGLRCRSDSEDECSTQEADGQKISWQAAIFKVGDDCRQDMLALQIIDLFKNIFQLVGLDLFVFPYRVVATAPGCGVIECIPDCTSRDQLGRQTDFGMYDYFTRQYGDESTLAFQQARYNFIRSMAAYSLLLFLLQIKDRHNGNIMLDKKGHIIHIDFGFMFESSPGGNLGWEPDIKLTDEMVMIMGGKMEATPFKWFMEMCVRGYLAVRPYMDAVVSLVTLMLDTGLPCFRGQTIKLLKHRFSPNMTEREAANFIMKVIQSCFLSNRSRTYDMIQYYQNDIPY

[11] = molecular target: T11, HeLa cell extract proteins (Homo sapiens, UniProt P78371)
T11 construct: endogenous in cells; host or cells: HeLa cell extract
T11 sequence (P78371 1-535): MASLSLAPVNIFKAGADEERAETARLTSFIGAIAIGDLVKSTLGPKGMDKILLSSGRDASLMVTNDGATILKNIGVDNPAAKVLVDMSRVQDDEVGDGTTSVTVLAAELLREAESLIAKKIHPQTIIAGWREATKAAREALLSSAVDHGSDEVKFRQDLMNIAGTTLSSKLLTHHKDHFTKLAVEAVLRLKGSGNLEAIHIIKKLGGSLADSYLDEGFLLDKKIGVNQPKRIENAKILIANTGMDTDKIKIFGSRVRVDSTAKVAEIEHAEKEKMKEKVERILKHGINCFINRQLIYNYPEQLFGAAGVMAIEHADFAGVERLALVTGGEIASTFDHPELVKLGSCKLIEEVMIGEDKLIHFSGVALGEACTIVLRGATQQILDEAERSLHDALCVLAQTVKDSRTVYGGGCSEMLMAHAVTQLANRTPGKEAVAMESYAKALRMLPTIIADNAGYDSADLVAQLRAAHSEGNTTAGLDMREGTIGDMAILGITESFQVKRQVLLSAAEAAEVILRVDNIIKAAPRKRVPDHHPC

[12] = HeLa, protein CACYBP (ISOFORM 1 OF CALCYCLIN-BINDING PROTEIN)
[13] = HeLa, protein SEC16A (HY[…] LOC9919)

SMILES | fold changes relative to vehicle control ([1]; HeLa, captured protein SEC13) | fold changes relative to vehicle control ([2]; HeLa, captured protein YEATS4) | fold changes relative to vehicle control [3, 12] | fold changes relative to vehicle control ([4]; HeLa, captured protein HSPA9) | fold changes relative to vehicle control ([5]; HeLa, protein TNPO1) | fold changes relative to vehicle control ([7]; HeLa, protein TKT) | fold changes relative to vehicle control ([8]; HeLa, protein KPNB1) | fold changes relative to vehicle control ([9]; HeLa, protein EZR) | fold changes relative to vehicle control ([10]; protein PI4KA, HeLa) | fold changes relative to vehicle control ([11]; HeLa, protein CCT2) | fold changes relative to vehicle control ([1]; HeLa, protein SEC13) | fold changes relative to vehicle control ([2]; HeLa, protein YEATS4) | fold changes relative to vehicle control ([3]; protein CACYBP, HeLa) | fold changes relative to vehicle control ([4]; protein HSPA9, HeLa) | fold changes relative to vehicle control ([5]; protein TNPO1, HeLa) | fold changes relative to vehicle control ([6]; HeLa, protein SEC16A) | fold changes relative to vehicle control ([7]; protein TKT, HeLa) | fold changes relative to vehicle control ([8]; protein KPNB1, HeLa) | fold changes relative to vehicle control ([9]; protein EZR, HeLa) | fold changes relative to vehicle control ([10]; captured protein PI4KA, HeLa) | other results
Nc1nc2c(c(=O)[nH]1)N(C=O)C(CNc1ccc(C(=O)N[C@@H](CCC(=O)O)C(=O)O)cc1)CN2 (some centres unmarked) [LEU, leucovorin] | 1.02 | 1.09 | 0.85 | 1.05 | 0.98 | 1.12 | 0.99 | 0.94 | 0.82 | 1.05 | – | – | – | – | – | – | – | – | – | – | fold changes relative to vehicle control [6, 13]: 1.25
Nc1nc2[nH]cc(CCc3ccc(C(=O)N[C@@H](CCC(=O)O)C(=O)O)cc3)c2c(=O)[nH]1 [PTX, pemetrexed] | – | – | – | – | – | – | – | – | – | – | – | – | – | – | – | – | – | – | – | – | fold changes relative to vehicle control [1]: 0.92; fold changes relative to vehicle control [2]: 0.99; fold changes relative to vehicle control [3]: 1; fold changes relative to vehicle control [4]: 0.97; fold changes relative to vehicle control [5]: 0.94; fold changes relative to vehicle control [6]: 1.17; fold changes relative to vehicle control [7]: 1.2; fold changes relative to vehicle control [8]: 1.06; fold changes relative to vehicle control [9]: 1; fold changes relative to vehicle control [10]: 0.73; fold changes relative to vehicle control [11]: 1.11
CCCCCCOc1ccc(Cc2cnc(N)nc2N)cc1 [compound 1] | – | – | – | – | – | – | – | – | – | – | 0.93 | 1.04 | 1.12 | 0.95 | 1.01 | 1 | 1.41 | 1.09 | 1.23 | 0.71 | fold changes relative to vehicle control ([11]; protein CCT2, HeLa): 1.33
CCCCCCOc1cccc(Cc2cnc(N)nc2N)c1 [compound 2] | – | – | – | – | – | – | – | – | – | – | 0.86 | 0.92 | 1.37 | 1.1 | 1.1 | 0.97 | 2.08 | 1.6 | 1.87 | 1.14 | fold changes relative to vehicle control ([11]; protein CCT2, HeLa): 1.75
Nc1nc2cccc(-c3ccccc3)c2n1Cc1ccc(Cl)c(Cl)c1 [compound 3] | – | – | – | – | – | – | – | – | – | – | 0.95 | 0.99 | 0.93 | 0.98 | 1 | 1.19 | 0.9 | 0.97 | 0.8 | 0.77 | fold changes relative to vehicle control ([11]; protein CCT2, HeLa): 1.13
NCCOCCOCC(=O)Nc1nc2ncc(CNc3ccc(C(=O)NC(CCC(=O)O)C(=O)O)cc3)nc2c(=O)[nH]1 (centres unmarked) [compound 6] | 0.86 | 0.81 | 1.16 | 0.99 | 1.03 | 1.26 | 1.13 | 1.16 | 0.94 | 1.23 | – | – | – | – | – | – | – | – | – | – | fold changes relative to vehicle control [6, 13]: 1.13
NCCCNc1ccc(C(=O)NC(CCC(=O)O)C(=O)O)cc1 (centres unmarked) [compound 7] | 0.98 | 1.29 | 1.16 | 0.97 | 0.99 | 0.99 | 0.89 | 0.92 | 1.02 | 0.95 | – | – | – | – | – | – | – | – | – | – | fold changes relative to vehicle control ([6]; HeLa, protein SEC16A (HYPOTHETICAL PROTEIN LOC9919)): 1.3
